Experimental data as given in PubChem BioAssay (NCI).
“And” between values parts separate entries of the source, which are not always exact repeats. Equal entries are not always repeated.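 Dose response: 5 concentrations. Exposure: 48 h. Format: 96-well plates. Endpoint: linear interpolation; highest concentration if not reached. GI50: concentration for 50% inhibition of growth. Definition used: TGI = concentration required for complete inhibition of growth.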

Legend:
Assay in all cases: growth of human tumour cells (NCI), 48 h
U251 CNS = system: U251 CNS
HCT-116 colon = system: HCT-116 colon
CAKI-1 renal = system: CAKI-1 renal
A549 NSCLC = system: A549 NSCLC
EKVX NSCLC = system: EKVX NSCLC
KM12 colon = system: KM12 colon
OVCAR-4 ovarian = system: OVCAR-4 ovarian
SR leukemia = system: SR leukemia
NCI/ADR-RES ovarian = system: NCI/ADR-RES ovarian
MDA-MB-435 = system: MDA-MB-435

SMILES | GI50 (U251 CNS) [µM] | TGI (U251 CNS) [µM] | GI50 (HCT-116 colon) [µM] | TGI (HCT-116 colon) | GI50 (CAKI-1 renal) [µM] | TGI (CAKI-1 renal) [µM] | GI50 (A549 NSCLC) [µM] | TGI (A549 NSCLC) [µM] | GI50 (EKVX NSCLC) [µM] | TGI (EKVX NSCLC) [µM] | GI50 (KM12 colon) [µM] | TGI (KM12 colon) [µM] | GI50 (OVCAR-4 ovarian) [µM] | TGI (OVCAR-4 ovarian) [µM] | GI50 (SR leukemia) [µM] | GI50 (NCI/ADR-RES ovarian) [µM] | TGI (NCI/ADR-RES ovarian) [µM] | TGI (SR leukemia) [µM] | TGI (MDA-MB-435) [µM]
C[C@@H](Oc1cc(-n2cnc3ccc(OC[C@@H](O)CO)cc32)sc1C(N)=O)c1ccccc1Cl | 0.126 | > 25 | 0.116 | > 25 µM | 12.2 | > 25 | 0.889 | > 25 | 1.75 | > 25 | 0.0641 | > 25 | 4.15 | > 25 | 0.0743 | 1.64 | > 25 |  | 
CCN=C(C#N)NCC |  | > 100 |  | > 100 µM |  | > 100 |  | > 100 |  | > 100 |  | > 100 |  | > 100 |  |  |  | > 100 | 
Cc1ccc(NC(=O)OCC(COc2ccc(Cl)cc2Cl)OC(=O)Nc2ccc(C)cc2)cc1 (centres undefined) |  | > 100 |  | > 100 µM |  | > 100 |  | > 100 |  | > 100 |  | > 100 |  | > 100 |  |  |  |  | 
CCOC(=O)C(=O)Nc1ccccc1C(C)C |  | > 100 |  | > 100 µM |  | > 100 |  | > 100 |  | > 100 |  | > 100 |  | > 100 |  |  |  | > 100 | 
CCOC1CC2OC(=O)C1C=C2C(=O)OC (centres undefined) |  | > 100 |  |  |  | 40 |  | > 100 |  | > 100 |  | > 100 |  | 57.4 |  |  |  |  | 
O=C(O)Cc1cccc2c(=O)c3cccc([N+](=O)[O-])c3oc12 |  | > 100 |  | > 100 µM |  | > 100 |  | > 100 |  | > 100 |  | > 100 |  | > 100 |  |  |  | > 100 | > 100
CCOCc1cc(=O)c2c(OC)cc3c(c2o1)CCC(C)(C)O3 |  | > 100 |  | > 100 µM |  |  |  | > 100 |  | > 100 |  | > 100 |  | > 100 |  |  |  | > 100 | 
Cn1cnc([N+](=O)[O-])c1Sc1nccc(=O)[nH]1 |  | > 100 |  | > 100 µM |  | > 100 |  | > 100 |  | > 100 |  | > 100 |  | > 100 |  |  |  | > 100 | 
Cc1ccccc1C1CC(c2ccccc2)=NO1 (centres undefined) |  | > 100 |  | > 100 µM |  | > 100 |  | > 100 |  | > 100 |  | > 100 |  | > 100 |  |  |  | > 100 | 
CCOP1(=O)C=C(C)C(=C(Cl)Cl)C(C)=C1 (centres undefined) |  | 50.9 | 3.33 | 7.13 µM and 13.3 µM |  | 49.3 |  | 58.8 |  | 38.3 |  | 5.11 |  | 29.1 |  |  |  |  | 
CC(C)C1N2CCCCC2[C@@H]2c3[nH]c4ccccc4c3CCN12 (some centres undefined) |  | > 100 |  | > 100 µM |  | > 100 |  | > 100 |  | > 100 |  |  |  | > 100 |  |  |  |  | 
COC(=O)/C(=N\NC(N)=O)C(C(=O)C=C(C)C)C(=O)C(=O)Nc1ccc(Cl)c(Cl)c1 (centres undefined) |  | > 100 |  | > 100 µM |  | > 100 |  | > 100 |  | > 100 |  | > 100 |  | > 100 |  |  |  | > 100 | 
CC1CC[P+](c2ccccc2)(c2ccccc2)CC1 |  | > 100 |  | > 100 µM |  |  |  | > 100 |  | > 100 |  | > 100 |  |  |  |  |  | > 100 | 
CCCCN(CCCC)CCCn1cnc2ncccc2c1=O |  | > 100 |  | > 100 µM |  | > 100 |  | > 100 |  | > 100 |  | > 100 |  | > 100 |  |  |  | > 100 | 
COc1ccc(OC)c(/C=C/c2nc(SCc3ccccc3)n(-c3ccc(Cl)cc3)n2)c1 | 5.35 | > 100 | 4.04 | > 100 µM | 2.09 | 5.28 | 6.79 | > 100 | 9.89 | > 100 | 4.99 | > 100 | 67 | > 100 | 3.53 | 2.25 | > 100 | > 100 | 
C/C(=N\NC(=O)CC(=O)N(C(=O)c1ccc(Cl)cc1)c1ccc(C)cc1)c1ccccc1O |  | > 100 |  | > 100 µM |  | > 100 |  | > 100 |  | > 100 |  | > 100 |  | 13.7 |  |  |  |  | 
C1C[OH+]CC[OH+]CCNCC[OH+]CC[OH+]CCN1.Cl.[Cl-].[Pt+4] | > 100 | > 100 | > 100 | > 100 µM | > 100 | > 100 | > 100 | > 100 | > 100 | > 100 |  |  |  |  |  |  |  |  | 
